Experimental findings from patent publication US5658939A, “Methionine sulfone and S-substituted cysteine sulfone derivatives as enzyme inhibitors” (Corvas International Inc., priority 1995, dated 1997) are described below.

Some results are limits rather than exact numbers.

Test [1] concerns the target Purified human alpha-thrombin (Homo sapiens, UniProt P00734). Description: in vitro thrombin inhibition assay, IC50 (chromogenic substrate Pefachrome t-PA). It counts as biochemical. To be noted: Table 1; 0.25 nM thrombin, 300 μM substrate, pH 7.5, 30 minute incubation. As to the method:
(§1) The ability of the compounds of the present invention to act as inhibitors of thrombin and plasmin catalytic activity was assessed by determining the concentration which inhibited enzyme activity by 50%, (IC50), using the purified human enzymes.
(§2) The buffer used for all assays was HBSA (10 mM HEPES, pH 7.5, 150 mM sodium chloride, 0.1% bovine serum albumin).
(§3) The assay for IC50 determinations was conducted by combining in appropriate wells of a Corning microtiter plate, 50 microliters of HBSA, 50 microliters of the test compound at a specified concentration (covering a broad concentration range) diluted in HBSA (or HBSA alone for Vo (uninhibited velocity) measurement), and 50 microliters of the enzyme diluted in HBSA. Following a 30 minute incubation at ambient temperature, 50 microliters of the substrate at the concentrations specified below, was added to the wells yielding a final total volume of 200 microliters. The initial velocity of chromogenic substrate hydrolysis was measured by the change in absorbance at 405 nm using a Thermo Max® Kinetic Microplate Reader over a 5 minute period in which less than 5% of the added substrate was utilized. The concentration of added inhibitor which caused a 50% decrease in the initial rate of hydrolysis was defined as the IC50 value.
Thrombin catalytic activity was determined using the chromogenic substrate Pefachrome t-PA (CH3 SO2 -D-hexahydrotyrosine-glycyl-L-arginine-p-nitroaniline, obtained from Pentapharm Ltd.). The substrate was made up in deionized water followed by dilution in HBSA prior to the assay in which the final concentration was 300 μM (about 10-times Km). Purified human alpha-thrombin was obtained from Enzyme Research Laboratories, Inc. The enzyme was diluted into HBSA prior to the assay in which the final concentration was 0.25 nM.

Test [2] addresses Purified human plasmin (Homo sapiens, UniProt P00747). As to the kind of experiment: in vitro plasmin inhibition assay, IC50 (chromogenic substrate S-2251). The test is classed as biochemical. The following applies: Table 1; 1.0 nM plasmin, 300 μM substrate, pH 7.5, 30 minute incubation. On the procedure:
as §1, §2, §3
Plasmin catalytic activity was determined using the chromogenic substrate, S-2251 [D-valyl-L-leucyl-L-lysine-p-nirtoanilide dihydrochloride], which was obtained from Kabi Diagnostica. The substrate was made up in deionized water followed by dilution in HBSA prior to the assay in which the final concentration was 300 μM (about 5-times Km). Purified human plasmin was obtained from Enzyme Research Laboratories, Inc. The enzyme was diluted into HBSA prior to assay in which the final concentration was 1.0 nM.

In test [3] the target is human alpha-thrombin (Homo sapiens, UniProt P00734). As to the kind of experiment: Determination of inhibition constant Ki for thrombin (steady state velocities, Pefachrome t-PA). The test is classed as biochemical. The following applies: Table 2; human alpha-thrombin 0.5 nM, steady state velocities over 40 minutes; read-out: Inhibitor Constants (Ki). As to the method: The ability of the compounds of the present invention to act as inhibitors of thrombin catalytic activity was assessed by determining their inhibition constant, Ki.
Enzyme activity was determined using the chromogenic substrate Pefachrome t-PA (CH3 SO2 -D-hexahydrotyrosine-glycyl-L-arginine-p-nitroaniline), obtained from Pentapharm Ltd. The substrate was reconstituted in deionized water prior to use. Purified human alpha-thrombin (3000U/mg specific activity) was obtained from Enzyme Research Laboratories, Inc. The buffer used for all assays was HBSA (10 mM HEPES, pH 7.5, 150 mM sodium chloride, 0.1% bovine serum albumin).
Velocities of chromogenic substrate hydrolysis which occurred over 40 minutes was measured by the change in absorbance at 405 nm using a Thermo Max® Kinetic Microplate Reader.
Ki values were determined for test compounds using the relationships developed by Williams and Morrison, Methods in Enzymology, 63:437 (1979) using steady state velocities (Vs) measured over 40 minutes. The extent of substrate hydrolysis was less than 5% over the course of this assay.
Table 2 below gives the Ki values for selected test compounds.

Test [4] concerns rat carotid artery. Description: Rat model of FeCl3-induced platelet-dependent arterial thrombosis. The test is classed as in vivo, rat (Male Harlan Sprague Dawley). The following applies: dose that prevents the incidence of complete thrombotic occlusion in 50% of animals tested; FeCl3 model, rat; read-out: ED50 for thrombus prevention.
Text: In this model a platelet-rich, occlusive thrombus is formed in a segment of the rat carotid artery treated locally with a fresh solution of FeCl3 absorbed to a piece of filter paper. The FeCl3 is thought to diffuse into the treated segment of artery and causes de-endothelialization of the affected vessel surface. […] The effect of a test compound on the incidence of occlusive thrombus formation following the application of the FeCl3 is monitored by ultrasonic flowtometry and is used as the primary end point. […] Male Harlan Sprague Dawley rats (420-450 g) were acclimated at least 72 hours prior to use and fasted for 12 hours prior to surgery with free access to water. The animals were prepared, anesthetized with Nembutal followed by the insertion of catheters for blood pressure monitoring, drug and anesthesia delivery. The left carotid artery was isolated by making a midline cervical incision followed by blunt dissection and spreading techniques to separate a 2 cm segment of the vessel from the carotid sheath. A silk suture was inserted under the proximal and distal ends of the isolated vessel to provide clearance for the placement of a ultrasonic flow probe (Transonic) around the proximal end of the vessel. The probe was then secured with a stationary arm. […] The test compound was administered as a single intravenous bolus at the doses outlined in Table 3 after placement of the flow probe and 5 minutes prior to the application of the FeCl3 thrombogenic stimulus (t=0). […] Blood pressure, blood flow, heart rate, and respiration were monitored for 60 minutes. The incidence of occlusion (defined as the attainment of zero blood flow) was recorded as the primary end point.

Chain of Purified human plasmin (P00747 581-810 limits assumed): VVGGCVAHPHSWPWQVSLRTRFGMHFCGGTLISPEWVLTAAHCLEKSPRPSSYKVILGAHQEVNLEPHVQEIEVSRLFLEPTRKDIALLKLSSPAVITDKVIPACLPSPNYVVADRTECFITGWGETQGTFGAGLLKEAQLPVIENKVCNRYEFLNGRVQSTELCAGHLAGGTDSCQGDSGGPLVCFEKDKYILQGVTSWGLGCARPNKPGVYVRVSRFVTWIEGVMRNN
Chain of Purified human plasmin (P00747 97-580 limits assumed): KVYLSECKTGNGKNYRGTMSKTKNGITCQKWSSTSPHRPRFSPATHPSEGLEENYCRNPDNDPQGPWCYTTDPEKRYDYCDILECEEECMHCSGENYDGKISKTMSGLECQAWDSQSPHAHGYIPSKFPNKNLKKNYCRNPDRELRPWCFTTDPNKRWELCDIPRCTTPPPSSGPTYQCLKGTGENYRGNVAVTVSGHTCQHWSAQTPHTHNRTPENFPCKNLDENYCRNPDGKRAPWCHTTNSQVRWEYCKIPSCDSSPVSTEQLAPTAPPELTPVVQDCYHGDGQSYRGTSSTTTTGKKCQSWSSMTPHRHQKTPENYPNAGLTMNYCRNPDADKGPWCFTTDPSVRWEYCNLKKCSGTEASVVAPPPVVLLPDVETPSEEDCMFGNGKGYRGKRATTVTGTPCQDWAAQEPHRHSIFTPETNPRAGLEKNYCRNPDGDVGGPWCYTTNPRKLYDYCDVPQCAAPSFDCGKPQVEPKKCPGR

As a reminder, the IC50 is the concentration that inhibits the measured activity by half. A higher IC50 goes with a need for much substance. For `CC1(C)[C@@H]2CC[C@@]1(CS(=O)(=O)N[C@@H](CCS(C)(=O)=O)C(=O)N1CCC[C@H]1C(=O)N[C@H](C=O)CCCNC(=N)N)C(=O)C2` [d-Camphor--SO2 --Met[S(O2)]--Pro--Arg-al], the concentration for half-maximal inhibition (IC50) in test [1] is 2.6 nM; in test [2], 30 nM.
Taken in the same sequence, the figures for `N=C(N)NCCC[C@@H](C=O)NC(=O)[C@@H]1CCCN1C(=O)[C@H](CS(=O)(=O)Cc1ccc(C(=O)O)cc1)NS(=O)(=O)Cc1ccccc1` [Example 139, N-benzylsulfonamide-L-cysteine-S-sulfone-(p-toluic acid) -L-proline-argininal aldehyde] were 1.7 nM and 250 to 2500 nM.
Consider `CS(=O)(=O)CC[C@H](NS(=O)(=O)CC1CCCCC1)C(=O)N1CCC[C@H]1C(=O)N[C@H](C=O)CCCNC(=N)N` [Example 18, N-cyclohexylmethanesulfonyl-L-methionine sulfone-L-proline-L-argininal], for which the IC50 was 0.66 nM in test [1] and 30 nM in test [2].
One may read the Ki as the dissociation constant of the complex between target and ligand, obtained from inhibition or displacement. `CCCC(CCC)C(=O)N[C@@H](CCS(C)(=O)=O)C(=O)N1CCC[C@H]1C(=O)N[C@H](C=O)CCCNC(=N)N` [Example 33, N-(2-propylpentanoyl)-L-methionine sulfone-L-proline-L-argininal]: the figures for the IC50 in test [1] and in test [2] were 5.5 nM and 500 nM, respectively. In addition, in test [3], the Ki came out at 4 nM.
For the molecule `CS(=O)(=O)C[C@H](NS(=O)(=O)c1cccc2ccccc12)C(=O)N1CCC[C@H]1C(=O)N[C@H](C=O)CCCNC(=N)N` [Example 49, N-(1-naphthalenesulfonyl)-S-methyl-L-cysteine sulfone-L-proline-L-argininal], the values for the IC50 in test [1] and in test [2] were 3.1 nM and 250 nM, respectively.
Taken in the same sequence, the figures for `COC(=O)c1ccccc1S(=O)(=O)N[C@@H](CCS(C)(=O)=O)C(=O)N1CCC[C@H]1C(=O)N[C@H](C=O)CCCNC(=N)N` [2-CMPhSO2 --Met[S(O2)]--Pro--Arg-al] were 0.81 nM and 200 nM.
For `CCCC(CCC)C(=O)N[C@@H](CS(=O)(=O)CC(=O)O)C(=O)N1CCC[C@H]1C(=O)N[C@H](C=O)CCCNC(=N)N` [Example 59, N-(2-propylpentanoyl)-S-(carboxymethyl)-L-cysteine sulfone-L-proline-L-argininal], the IC50 came to 1.6 nM in test [1] and 220 nM in test [2].
For `N=C(N)NCCC[C@@H](C=O)NC(=O)[C@@H]1CCCN1C(=O)[C@H](CS(=O)(=O)CC(=O)O)NS(=O)(=O)Cc1ccccc1` [Example 56, N-benzylsulfonyl-S-(carboxymethyl)-L-cysteine sulfone-L-proline-L-argininal], in that order: 13 nM and 490 nM.
For `CCCC(CCC)C(=O)N[C@@H](CS(=O)(=O)Cc1ccc(C(=O)O)cc1)C(=O)N1CCC[C@H]1C(=O)N[C@H](C=O)CCCNC(=N)N` [Example 144, N-2-propylpentylamide-L-cysteine-S-sulfone (p-toluic acid) -L-proline-arginal aldehyde], in that order: 0.742 nM and 388 nM.
Taken in the same sequence, the figures for `N=C(N)NCCC[C@@H](C=O)NC(=O)[C@@H]1CCCN1C(=O)[C@H](CSCC(=O)O)NS(=O)(=O)Cc1ccccc1` were 13 nM and 490 nM.
As for `CCCC(CCC)C(=O)N[C@@H](CS(C)(=O)=O)C(=O)N1CCC[C@H]1C(=O)N[C@H](C=O)CCCNC(=N)N` [Example 43, N-(2-propylpentanoyl)-S-methyl-L-cysteine sulfone-L-proline-L-argininal], the IC50 in test [1] amounted to 5.1 nM; in test [2], 2800 nM.
Consider `CCCCS(=O)(=O)N[C@@H](CS(C)(=O)=O)C(=O)N1CCC[C@H]1C(=O)N[C@H](C=O)CCCNC(=N)N` [Example 40, N-(1-butanesulfonyl)-S-methyl-L-cysteine Sulfone-L-proline-L-argininal], for which the IC50 in test [1] is 1.8 nM; in test [2] it was > 250 nM.
For the molecule `CS(=O)(=O)CC[C@H](NS(=O)(=O)NC1CCCCC1)C(=O)N1CCC[C@H]1C(=O)N[C@H](C=O)CCCNC(=N)N` [ChxNH--SO2 --Met[S(O2)]--Pro--Arg-al], the IC50 in test [1] worked out at 146 nM; in test [2] it was 2600 nM.
On to `CS(=O)(=O)CC[C@H](NS(=O)(=O)c1ccc2ccccc2c1)C(=O)N1CCC[C@H]1C(=O)N[C@H](C=O)CCCNC(=N)N` [Example 24, N-(2-naphthylenesulfonyl)-L-methionine sulfone-L-proline-L-argininal], for which the IC50 was determined as 0.58 nM in test [1] and 35 nM in test [2]. For the same molecule, in test [3], the Ki was determined as 0.135 nM.
In the case of `CCCCS(=O)(=O)N[C@@H](CS(=O)(=O)CC(=O)O)C(=O)N1CCC[C@H]1C(=O)N[C@H](C=O)CCCNC(=N)N`, the IC50 in test [1] was found to be 3 nM; in test [2], 110 nM.
Regarding `CCCCS(=O)(=O)N[C@@H](CCS(C)(=O)=O)C(=O)N1CCC[C@H]1C(=O)N[C@H](C=O)CCCNC(=N)N` [Example 11, N-(1-butanesulfonyl)-L-methioninesulfone-L-proline-L-argininal], the IC50 in test [1] stood at 1.6 nM; in test [2] it was 199 nM.
As a reminder, the ED50 is the dose at which the effect has come halfway, by size or by number of responders. For `CC1CNc2c(cccc2S(=O)(=O)N[C@@H](CCCNC(=N)N)C(=O)N2CC[C@@H](C)C[C@@H]2C(=O)O)C1` (stereo partly drawn) [Argatroban, 2R,4R-4-methyl-1-[N-2-(3-methyl-1,2,3,4-tetrahydro-8-quinolinesulfonyl)-L-argininal]-2-piperdinecarboxylic acid, reference compound], in test [4], the 50% effective dose (ED50) came to 3.8 mg/kg.
Take `COC(=O)CS(=O)(=O)C[C@H](NS(=O)(=O)c1ccc2ccccc2c1)C(=O)N1CCC[C@H]1C(=O)N[C@H](C=O)CCCNC(=N)N` [Example 69, N-(2-naphthylenesulfonyl)-S-(methyl acetate)-L-cysteine sulfone-L-proline-L-argininal]: the values for the IC50 in test [1] and in test [2] were 0.56 nM and 61 nM, respectively.
For `CS(=O)(=O)CC[C@H](NS(=O)(=O)c1cccc2ccccc12)C(=O)N1CCC[C@H]1C(=O)N[C@H](C=O)CCCNC(=N)N` [Example 21, N-(1-naphthylenesulfonyl)-L-methionine sulfone-L-proline-L-argininal], in that order: 0.78 nM and > 25 nM.
For `CS(=O)(=O)C[C@H](NS(=O)(=O)c1ccc2ccccc2c1)C(=O)N1CCC[C@H]1C(=O)N[C@H](C=O)CCCNC(=N)N` [Example 46, N-(2-naphthalenesulfonyl)-S-methyl-L-cysteine sulfone-L-proline-L-argininal], in that order: 1.4 nM and > 250 nM.
